Assay results as given in patent US20040116336A1, “Peptide derivatives” (priority 2002, published 2004).
pEC50, pIC50: −log10 of the molar value. Non-standard residues stand in square brackets, D forms with d. Residues, ends and D or L forms follow the SMILES beside them. Phe(4-Cl) = N[C@@H](Cc1ccc(Cl)cc1)C(=O)O; Cha = N[C@@H](CC1CCCCC1)C(=O)O

Experiments:
APJ [1] = molecular target: T1, APJ (Homo sapiens, UniProt P35414); assay: Receptor binding assay-2 (compound in Reference Example 2 used); conditions: compound in Reference Example 2 used as ligand; read-out: IC50
T1 construct: expressed in transfected cells; host or cells: CHO (CHO-A10; clone 6 for the cAMP assay)
T1 sequence (P35414 1-380): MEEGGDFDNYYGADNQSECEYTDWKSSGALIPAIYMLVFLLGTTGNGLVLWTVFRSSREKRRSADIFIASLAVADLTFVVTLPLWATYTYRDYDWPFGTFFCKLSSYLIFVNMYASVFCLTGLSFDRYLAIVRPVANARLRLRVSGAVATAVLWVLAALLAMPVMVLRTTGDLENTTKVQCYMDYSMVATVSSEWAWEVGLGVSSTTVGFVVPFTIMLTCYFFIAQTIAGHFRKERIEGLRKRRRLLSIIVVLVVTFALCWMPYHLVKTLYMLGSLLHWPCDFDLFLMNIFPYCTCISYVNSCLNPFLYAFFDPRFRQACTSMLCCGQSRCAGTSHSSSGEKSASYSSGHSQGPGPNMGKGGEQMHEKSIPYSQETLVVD

APJ [2] = molecular target: T1, APJ; assay: Receptor binding assay-1 (125I-labeled compound in Reference Example 1, CHO-A10 membrane fraction); conditions: 125I-labeled compound in Reference Example 1 at 100 pM, room temperature […]
Protocol: This product was mixed with an equal volume of an assay buffer (50 mM Tris-HCl/pH 7.5, 5 mM EDTA, 0.5 mM PMSF, 20 μg/ml leupeptin, 0.1 μg/ml pepstatin A, 4 μg/ml E-64 (Peptide Research Laboratory, Co.), 0.1% bovine serum albumin) and stored at −30° C. before use.
CHO-A10 cells were cultured, recovered with PBS containing 5 mM EDTA from a culture vessel, and suspended in the above-mentioned assay buffer not containing bovine serum albumin. The cells were homogenized 3 times at 12,000 rpm for 15 seconds by a Polytron homogenizer (manufactured by Kinematica Inc.) and then centrifuged (1000×g, 4° C., 10 minutes), and the supernatant was recovered. The precipitates were subjected again to the same procedure as above, and the respective supernatants were combined and centrifuged at 100,000×g, 4° C. for 1 hour, to recover precipitates (membrane fraction). The membrane fraction was suspended again in a small amount of the buffer, homogenized with a Teflon homogenizer and stored at −80° C. before use.
Binding assay was carried out under the following conditions. […] Measurement of non-specific binding was carried out using a well containing 1 μM unlabeled compound in place of the test sample. After the incubation was finished, a cell harvester (Packard) adapted to 96 wells and a filter unit (GF/C, Packard) were used for separation thereby capturing the membrane fraction on the filter. After the filter was sufficiently dried, Microcinti 0 (Packard) was added thereto, and using Top Count (Packard), the amount of the labeled material captured together with the membrane fraction on the filter was measured.

APJ [3] = molecular target: T1, APJ; assay: Inhibitory activity on forskolin-stimulated cAMP production in CHO-A10 clone 6 cells; format: cell-based; conditions: read-out: EC50

Compound | pIC50 (APJ [1]) | pIC50 (APJ [2]) | pEC50 (APJ [3])
CC(C)C[C@H](NC(=O)[C@H](CCCNC(=N)N)NC(=O)[C@@H]1CCCN1C(=O)[C@H](CCCNC(=N)N)NC(=O)[C@H](CCC(N)=O)NC(=O)[C@H](CCCNC(=N)N)NC(=O)[C@@H](N)CCCNC(=N)N)C(=O)N[C@@H](CO)C(=O)N[C@@H](C)C(=O)N[C@@H](CCCNC(=N)N)C(=O)NCC(=O)N1CCC[C@H]1C(=O)N[C@@H](CC1CCCCC1)C(=O)O [Compound in Ex. 6] | 10.34 | 8.85 | 9.26
CC(C)C[C@H](NC(=O)[C@H](CCCNC(=N)N)NC(=O)[C@@H]1CCCN1C(=O)[C@@H](N)CCCNC(=N)N)C(=O)N[C@@H](CO)C(=O)N[C@@H](C)C(=O)N[C@@H](CCCNC(=N)N)C(=O)NCC(=O)N1CCC[C@H]1C(=O)N[C@@H](CC1CCCCC1)C(=O)N1CCC[C@H]1C(=O)N[C@@H](Cc1ccccc1)C(=O)O [Compound in Ex. 11] (H-RPRLSARGP[Cha]PF-OH; N-terminus and C-terminus assumed) | 10.08 | 8.66 | 9.23
CC(C)C[C@H](NC(=O)[C@H](CCCNC(=N)N)NC(=O)[C@@H]1CCCN1C(=O)[C@H](CCCNC(=N)N)NC(=O)[C@H](CCC(N)=O)NC(=O)[C@H](CCCNC(=N)N)NC(=O)[C@@H](N)CCCNC(=N)N)C(=O)N[C@@H](CO)C(=O)N[C@@H](Cc1c[nH]cn1)C(=O)N[C@@H](CCCCN)C(=O)NCC(=O)N1CCC[C@H]1C(=O)N[C@@H](CC1CCCCC1)C(=O)N1CCC[C@H]1C(=O)N[C@@H](Cc1ccc(Cl)cc1)C(=O)O [Compound in Ex. 2] | 9.48 | 9.33 | 9.28
CC(C)C[C@H](NC(=O)[C@H](CCCNC(=N)N)NC(=O)[C@@H]1CCCN1C(=O)[C@@H](N)CCCNC(=N)N)C(=O)N[C@@H](CO)C(=O)N[C@@H](C)C(=O)N[C@@H](CCCNC(=N)N)C(=O)NCC(=O)N1CCC[C@H]1C(=O)N[C@@H](CC1CCCCC1)C(=O)N1CCC[C@H]1C(=O)N[C@@H](Cc1ccc(Cl)cc1)C(=O)O [Compound in Ex. 5] (H-RPRLSARGP[Cha]P[Phe(4-Cl)]-OH) | 9.89 | 8.92 | 9.29
CSCC[C@H](NC(=O)[C@@H]1CCCN1C(=O)CNC(=O)[C@H](CCCNC(=N)N)NC(=O)[C@H](C)NC(=O)[C@H](CO)NC(=O)[C@H](CC(C)C)NC(=O)[C@H](CCCNC(=N)N)NC(=O)[C@@H]1CCCN1C(=O)[C@@H](N)CCCNC(=N)N)C(=O)N1CCC[C@H]1C(=O)N[C@@H](Cc1ccc(Cl)cc1)C(=O)O [Compound in Ex. 3] (H-RPRLSARGPMP[Phe(4-Cl)]-OH; N-terminus and C-terminus assumed) | 10.44 | 9.04 | 9.49
CC(C)C[C@H](NC(=O)[C@H](CCCNC(=N)N)NC(=O)[C@@H]1CCCN1C(=O)[C@@H](N)CCCNC(=N)N)C(=O)N[C@@H](CO)C(=O)N[C@@H](C)C(=O)N[C@@H](CCCNC(=N)N)C(=O)NCC(=O)N1CCC[C@H]1C(=O)N[C@@H](CC1CCCCC1)C(=O)N[C@@H](Cc1ccc(Cl)cc1)C(=O)O [Compound in Ex. 4] (H-RPRLSARGP[Cha][Phe(4-Cl)]-OH; N-terminus and C-terminus assumed) | 10.00 | 9.00 | 9.19
CC(C)C[C@H](NC(=O)[C@H](CCCNC(=N)N)NC(=O)[C@@H]1CCCN1C(=O)[C@@H](N)CCCNC(=N)N)C(=O)N[C@@H](CO)C(=O)N[C@@H](Cc1c[nH]cn1)C(=O)N[C@@H](CCCCN)C(=O)NCC(=O)N1CCC[C@H]1C(=O)N[C@@H](CC1CCCCC1)C(=O)N1CCC[C@H]1C(=O)N[C@@H](Cc1ccc(Cl)cc1)C(=O)O [Compound in Ex. 7] | 9.92 | 8.85 | 9.39

Second part, the compound after the results:

pIC50 (APJ [1]) | pIC50 (APJ [2]) | pEC50 (APJ [3]) | Compound
10.64 | 8.60 | 9.74 | CSCC[C@H](NC(=O)[C@@H]1CCCN1C(=O)CNC(=O)[C@H](CCCNC(=N)N)NC(=O)[C@H](C)NC(=O)[C@H](CO)NC(=O)[C@H](CC(C)C)NC(=O)[C@H](CCCNC(=N)N)NC(=O)[C@@H]1CCCN1C(=O)[C@H](CCCNC(=N)N)NC(=O)[C@H](CCC(N)=O)NC(=O)[C@H](CCCNC(=N)N)NC(=O)[C@@H](N)CCCNC(=N)N)C(=O)O [Compound in Ex. 18]
10.17 | 7.47 | 9.60 | CSCC[C@H](NC(=O)[C@@H]1CCCN1C(=O)CNC(=O)[C@H](CCCCN)NC(=O)[C@H](Cc1c[nH]cn1)NC(=O)[C@H](CO)NC(=O)[C@H](CC(C)C)NC(=O)[C@H](CCCNC(=N)N)NC(=O)[C@@H]1CCCN1C(=O)[C@H](CCCNC(=N)N)NC(=O)[C@H](C)NC(=O)[C@H](CCCNC(=N)N)NC(=O)[C@@H](N)CCCNC(=N)N)C(=O)N1CCC[C@H]1C(=O)N[C@@H](Cc1ccccc1)C(=O)O [Compound in Ex. 25]
10.24 | 7.57 | 9.60 | H-RPRLSARGPMPF-OH [Compound in Ex. 24]
9.89 | 8.10 | 9.34 | CC(C)C[C@H](NC(=O)[C@H](CCCNC(=N)N)NC(=O)[C@@H]1CCCN1C(=O)[C@@H](N)CCCNC(=N)N)C(=O)N[C@@H](Cc1ccccc1)C(=O)N[C@@H](Cc1c[nH]cn1)C(=O)N[C@@H](CCCCN)C(=O)NCC(=O)N1CCC[C@H]1C(=O)N[C@@H](CC1CCCCC1)C(=O)N1CCC[C@H]1C(=O)N[C@@H](Cc1ccccc1)C(=O)O [Compound in Ex. 15] (H-RPRLFHKGP[Cha]PF-OH; N-terminus and C-terminus assumed)
9.42 | 8.64 | 8.92 | CC(C)C[C@H](NC(=O)[C@H](CCCNC(=N)N)NC(=O)[C@@H]1CCCN1C(=O)[C@@H](N)CCCNC(=N)N)C(=O)N[C@@H](Cc1ccccc1)C(=O)N[C@@H](C)C(=O)N[C@@H](CCCNC(=N)N)C(=O)NCC(=O)N1CCC[C@H]1C(=O)N[C@@H](CC1CCCCC1)C(=O)N1CCC[C@H]1C(=O)N[C@@H](Cc1ccc(Cl)cc1)C(=O)O [Compound in Ex. 12] (H-RPRLFARGP[Cha]P[Phe(4-Cl)]-OH)
10.05 | 8.04 | 9.51 | CSCC[C@H](NC(=O)[C@@H]1CCCN1C(=O)CNC(=O)[C@H](CCCCN)NC(=O)[C@H](Cc1c[nH]cn1)NC(=O)[C@H](CO)NC(=O)[C@H](CC(C)C)NC(=O)[C@H](CCCNC(=N)N)NC(=O)[C@@H]1CCCN1C(=O)[C@H](CCCNC(=N)N)NC(=O)[C@H](CCCCN)NC(=O)[C@H](CCCNC(=N)N)NC(=O)[C@@H](N)CCCNC(=N)N)C(=O)N1CCC[C@H]1C(=O)N[C@@H](Cc1ccccc1)C(=O)O [Compound in Ex. 23]
10.57 | 8.57 | 9.55 | CCCC[C@H](NC(=O)[C@@H]1CCCN1C(=O)CNC(=O)[C@H](CCCCN)NC(=O)[C@H](Cc1c[nH]cn1)NC(=O)[C@H](CO)NC(=O)[C@H](CC(C)C)NC(=O)[C@H](CCCNC(=N)N)NC(=O)[C@@H]1CCCN1C(=O)[C@H](CCCNC(=N)N)NC(=O)[C@H](CCC(N)=O)NC(=O)[C@H](CCCNC(=N)N)NC(=O)[C@@H](N)CCCNC(=N)N)C(=O)N1CCC[C@H]1C(=O)N[C@@H](Cc1ccc(O)cc1)C(=O)O [Compound in Ex. 14]
